The source made the active and inactive calls. How the calls were made is not given here.
Biological target: Low molecular weight phosphotyrosine protein phosphatase (Homo sapiens) (UniProt P24666)
Assay: inhibition of human LMPTP enzyme activity – biochemical, absorbance, orthogonal assay, dose response (AID 652005)
Details: recombinant LMPTP, absorbance-based phosphatase activity

Low molecular weight phosphotyrosine protein phosphatase (Homo sapiens), sequence (P24666 whole entry, looked up): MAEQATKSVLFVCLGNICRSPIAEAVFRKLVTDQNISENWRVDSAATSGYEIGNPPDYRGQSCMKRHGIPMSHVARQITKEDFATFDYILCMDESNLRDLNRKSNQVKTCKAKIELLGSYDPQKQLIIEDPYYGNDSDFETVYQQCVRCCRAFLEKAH

Row | Structure (SMILES) | IC50
1 | O=c1[nH]c2ccccc2n1C1CCN(Cc2ccc(-c3[nH]c4cc5ncnc5cc4nc3-c3ccccc3)cc2)CC1 | > 80 µM (inactive)
2 | CC(C1SC(=S)NC1=O)C1SC(=S)NC1=O (stereo not drawn) | > 80 µM (inactive)
3 | O=C(/C=C/c1ccc(Cl)cc1)NC(=S)Nc1ccc(C(=O)O)cc1 | 15 µM
4 | CCN(c1ccccc1)S(=O)(=O)c1cc(C(=O)O)ccc1C | inactive

The next lines start with the values.

Row | IC50 | Structure (SMILES)
5 | > 80 µM (inactive) | Cc1csc2nc(O)c(C(=O)NCc3ccc4c(c3)OCO4)c(=O)n12
6 | > 80 µM (inactive) | O=C(N=Nc1c(O)[nH]c2ccc(F)cc12)c1ccc(NS(=O)(=O)c2cccs2)cc1
7 | > 80 µM (inactive) | CCc1ccc(C=C2SC(=S)N(CCCC(=O)Nc3ccc(C(=O)O)cc3)C2=O)cc1
8 | > 80 µM (inactive) | O=C(NCc1ccc2c(c1)OCO2)c1c(O)nc2sccn2c1=O
